Key:
barnyard grass [1] = experiment: Test Example 3: herbicidal effect by foliage application, Wagner pot (Table 18, symbol H); type: in vivo, barnyard grass (Echinochloa crus-galli); conditions: amount of applied herbicide 320 g/ha
Outline: (§1)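 Plants were sown in alluvial soil held under 0.1–0.5 cm standing water and grown 14 days in a greenhouse at 25–30 °C. An emulsifiable formulation, water-diluted to the set dose, was then sprayed onto the foliage, and effects were scored three weeks later using previously defined criteria.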

oval-leafed pondweed = experiment: Test Example 1: herbicidal activity, application before weed generation under submerged conditions (Table 16, symbol C); type: in vivo, oval-leafed pondweed (Monochoria vaginalis); conditions: for Herbicidal effect, C: oval-leafed pondweed: amount of applied herbicide 320 g/ha
Source text: (§2) [Test Example 1] Herbicidal Activity Test by Application before Weed Generation under Submerged Conditions After alluvial soil was placed into 1/10000 are of Wagner pot, water was poured and mixed to form a submerged condition having a water depth of 4 cm. Seeds of late watergrass, Japanese bulrush, and oval-leafed pondweed were sowed in a mixed manner in the aforementioned pot, and then 2.5 leaf stage rice plant seedlings were transplanted thereto. On the day of sowing seeds, the emulsion agent of the compound of the present invention prepared according to Formulation Example 2 was diluted with water so as to achieve a predetermined herbicide amount, and the diluted emulsion agent was applied to the surface of the water. The pot was placed in a greenhouse at 25° C. to 30° C. for growth of the plants. Three weeks after the herbicide application, the effect of the herbicide on each plant was evaluated according to the following criteria. Evaluation Criteria 5: Herbicidal rate of 90% or more (almost completely withered) 4: Herbicidal rate of 70% or more and less than 90% 3: Herbicidal rate of 40% or more and less than 70% 2: Herbicidal rate of 20% or more and less than 40% 1: Herbicidal rate of 5% or more and less than 20% 0: Herbicidal rate of 5% or less (almost no effect)

Chinese sprangletop = experiment: Test Example 3: herbicidal effect by foliage application, Wagner pot (Table 18, symbol D); type: in vivo, chinese sprangletop (Leptochloa chinensis); conditions: amount of applied herbicide 320 g/ha
Outline: as §1

rice flat sedge = experiment: Test Example 3: herbicidal effect by foliage application, Wagner pot (Table 18, symbol E); type: in vivo, rice flat sedge (Cyperus iria); conditions: amount of applied herbicide 320 g/ha
Outline: as §1

late watergrass = experiment: Test Example 1: herbicidal activity, application before weed generation under submerged conditions (Table 16, symbol A); type: in vivo, late watergrass (Echinochloa oryzicola); conditions: for Herbicidal effect, A: late watergrass: amount of applied herbicide 320 g/ha
Source text: as §2

Japanese bulrush = experiment: Test Example 1: herbicidal activity, application before weed generation under submerged conditions (Table 16, symbol B); type: in vivo, Japanese bulrush (Schoenoplectus juncoides); conditions: for Herbicidal effect, B: Japanese bulrush: amount of applied herbicide 320 g/ha
Source text: as §2

green foxtail = experiment: Test Example 5: herbicidal effect by foliage application, plastic box (Table 20, symbol G); type: in vivo, green foxtail (Setaria viridis); conditions: foliage application, 320 g/ha, three weeks after application
Outline: (§3)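 Post-emergence foliar test in sterilized diluvial soil. Compound applied as water-diluted emulsion at a predetermined rate to 14-day-old plants; evaluation at three weeks.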

lambsquarters = experiment: Test Example 5: herbicidal effect by foliage application, plastic box (Table 20, symbol O); type: in vivo, lambsquarters (Chenopodium album); conditions: foliage application, 320 g/ha, three weeks after application
Outline: as §3

wild oat = experiment: Test Example 5: herbicidal effect by foliage application, plastic box (Table 20, symbol I); type: in vivo, wild oat (Avena fatua); conditions: foliage application, 320 g/ha, three weeks after application
Outline: as §3

velvetleaf = experiment: Test Example 5: herbicidal effect by foliage application, plastic box (Table 20, symbol M); type: in vivo, velvetleaf (Abutilon theophrasti); conditions: foliage application, 320 g/ha, three weeks after application
Outline: as §3

windgrass = experiment: Test Example 5: herbicidal effect by foliage application, plastic box (Table 20, symbol L); type: in vivo, windgrass (Apera spica-venti); conditions: foliage application, 320 g/ha, three weeks after application
Outline: as §3

Italian ryegrass = experiment: Test Example 5: herbicidal effect by foliage application, plastic box (Table 20, symbol K); type: in vivo, Italian ryegrass (Lolium multiflorum); conditions: foliage application, 320 g/ha, three weeks after application
Outline: as §3

southern crabgrass = experiment: Test Example 5: herbicidal effect by foliage application, plastic box (Table 20, symbol F); type: in vivo, southern crabgrass (Digitaria ciliaris); conditions: foliage application, 320 g/ha, three weeks after application
Outline: as §3

blackgrass = experiment: Test Example 5: herbicidal effect by foliage application, plastic box (Table 20, symbol J); type: in vivo, blackgrass (Alopecurus myosuroides); conditions: foliage application, 320 g/ha, three weeks after application
Outline: as §3

barnyard grass [2] = experiment: Test Example 5: herbicidal effect by foliage application, plastic box (Table 20, symbol H); type: in vivo, barnyard grass (Echinochloa crus-galli); conditions: foliage application, 320 g/ha, three weeks after application
Outline: as §3

persian speedwell = experiment: Test Example 5: herbicidal effect by foliage application, plastic box (Table 20, symbol R); type: in vivo, Persian speedwell (Veronica persica); conditions: foliage application, 320 g/ha, three weeks after application
Outline: as §3

SMILES: Cc1nn(C)c(=O)c(-c2c(-c3ccc(OC(F)(F)F)cc3)oc3ccc(F)cc23)c1O [9-033]
- Herbicidal effect on H (barnyard grass), foliage application (barnyard grass [1]): 4 (Herbicidal rate of 70% or more and less than 90%)
- Herbicidal effect, C: oval-leafed pondweed (oval-leafed pondweed): 0 (Herbicidal rate of 5% or less (almost no effect))
- Herbicidal effect on D (Chinese sprangletop), foliage application (Chinese sprangletop): 3 (Herbicidal rate of 40% or more and less than 70%)
- Herbicidal effect on E (rice flat sedge), foliage application (rice flat sedge): 5 (Herbicidal rate of 90% or more (almost completely withered))
- Herbicidal effect, A: late watergrass (late watergrass): 2 (Herbicidal rate of 20% or more and less than 40%)
- Herbicidal effect, B: Japanese bulrush (Japanese bulrush): 0 (Herbicidal rate of 5% or less (almost no effect))

SMILES: CCS(=O)(=O)Cc1ccc(-c2sc3ccc(F)cc3c2-c2c(O)c(C)nn(C)c2=O)cc1 [2-335]
- herbicidal effect on H: barnyard grass (barnyard grass [1]): 5 (Herbicidal rate of 90% or more (almost completely withered))
- Herbicidal effect on C: oval-leafed pondweed (grade 0-5) (oval-leafed pondweed; 320 g/ha applied herbicide): 0 (Herbicidal rate of 5% or less (almost no effect))
- herbicidal effect on D: Chinese sprangletop (Chinese sprangletop): 3 (Herbicidal rate of 40% or more and less than 70%)
- herbicidal effect on E: rice flat sedge (rice flat sedge): 5 (Herbicidal rate of 90% or more (almost completely withered))
- Herbicidal effect on A: late watergrass (grade 0-5) (late watergrass; 320 g/ha applied herbicide): 3 (Herbicidal rate of 40% or more and less than 70%)
- Herbicidal effect on B: Japanese bulrush (grade 0-5) (Japanese bulrush; 320 g/ha applied herbicide): 0 (Herbicidal rate of 5% or less (almost no effect))

SMILES: Cc1cc2sc(-c3ccc(OC(F)F)cc3)c(-c3c(O)c(C)nn(C)c3=O)c2cc1C [5-098]
- herbicidal effect on green foxtail (G) (green foxtail): 0 (Herbicidal rate of 5% or less (almost no effect))
- herbicidal effect on lambsquarters (O) (lambsquarters): 0 (Herbicidal rate of 5% or less (almost no effect))
- herbicidal effect on wild oat (I) (wild oat): 0 (Herbicidal rate of 5% or less (almost no effect))
- Herbicidal effect, C: oval-leafed pondweed (oval-leafed pondweed): 0 (Herbicidal rate of 5% or less (almost no effect))
- herbicidal effect on velvetleaf (M) (velvetleaf): 0 (Herbicidal rate of 5% or less (almost no effect))
- herbicidal effect on windgrass (L) (windgrass): 0 (Herbicidal rate of 5% or less (almost no effect))
- herbicidal effect on Italian ryegrass (K) (Italian ryegrass): 0 (Herbicidal rate of 5% or less (almost no effect))
- herbicidal effect on southern crabgrass (F) (southern crabgrass): 0 (Herbicidal rate of 5% or less (almost no effect))
- herbicidal effect on blackgrass (J) (blackgrass): 0 (Herbicidal rate of 5% or less (almost no effect))
- herbicidal effect on barnyard grass (H) (barnyard grass [2]): 0 (Herbicidal rate of 5% or less (almost no effect))
- herbicidal effect on persian speedwell (R) (persian speedwell): 5 (Herbicidal rate of 90% or more (almost completely withered))
- Herbicidal effect, A: late watergrass (late watergrass): 3 (Herbicidal rate of 40% or more and less than 70%)
- Herbicidal effect, B: Japanese bulrush (Japanese bulrush): 0 (Herbicidal rate of 5% or less (almost no effect))

From patent US20230085307A1, “PYRIDAZINONE COMPOUND AND HERBICIDE” (NISSAN CHEMICAL CORPORATION, priority 2019, published 2023)
